Format in all cases: cell-based, human
In test [1] the test system is HeLa cells. Briefly: Anti-clonogenic activity on HeLa cells (plating efficiency assay / live cell imaging). The note with it: HeLa; for Anti-clonal effect / end point clonal assay, clonal inhibition alone: 50 μM; for Anti-clonal effect: isolated, FIG. 1; for clonal inhibition in combination with Apigenin: 50 μM combined with Apigenin 25 μM; for clonal inhibition in combination with Apigenin / end point clonal assay, clonal inhibition alone: FIG. 9-11; for clonal inhibition in combination with Chrysin: 50 μM combined with Chrysin 25 μM; for clonal inhibition in combination with Chrysin / synergy with Galangine, Apigenin and Chrysin: FIG. 10-11; for end point clonal assay, clonal inhibition alone: administered alone. The method, then: Panel C and D: diagrammatic topographical maps of treatments and growth conditions on plates A and B respectively.
Panel A. Hela cells were challenged with serial twofold dilutions of 50 μM Luteolin (in columns 1-6) and 100 μM Galangin (columns 7-10). Hela control untreated cells in columns 11-12.
(§1) A total of 6 cell lines, outlined in Table 3, were used for this study. The cell lines were obtained from Research Centres of cell biology in Italy, United Kingdom and Germany. This research raised no ethical concern being based on entirely in vitro experiments using no patients' derived information or material. In compliance with National and International ethical rules, no informed consent is needed.
(§2) HeLa cells are the oldest continuous cell lines and were originally derived from a HPV18 positive metastatic cervical carcinoma (Scherer W F et al 1953). Siha cells are an epithelioid like cell line derived from a HPV16-positive invasive cervical squamous carcinoma (Friedel F et al 1970). Ca-Ski cells are a line harboring multiple copy of transcriptionally active HPV16 genomes (Baker C C et al 1984). Both Hela and Siha were a kind gift of prof MS Campo, The Beatson Institute for Cancer Research, Glasgow, Scotland. These two cell lines because of their versatility and ease of use were used for most of experiments reported. Ca-Ski cells were obtained through the courtesy of prof. Matthias Durst, at the Deutsch Krebsforschungzentrum—Heidelberg, FRG. These cells used together with Siha provide a model for the genetic instability and variability of cervical cancers. HK-168 is an immortalized, non-tumorigenic, continuous cell line derived from human skin keratinocytes in vitro transformed with whole HPV16 genome (De Marco F et al 2007). This cell line is reputed to recapitulate le biological features of transformed dysplastic cells and was used in preliminary experiments to set the experimental dosages and conditions. The ME-180 cells are a cell line harboring a few, transcriptionally active, copies of HPV68 and provide an in vitro model for dysplastic/neoplastic lesions induced by HPV with Intermediate oncogenic Risk (Yee C C et al 1985). The HaCaT cells, derived from a solar skin lesion by Petra Boukamp et al (1988) are here used as an in vitro equivalent of Ultra-Violet induced pre-neoplastic epithelial cells to rule out possible direct toxic effects of polyphenols. Both HaCaT and ME-180, were kindly donated by Prof. Matthias Durst. Hela, Siha, Ca-Ski, ME-180 and HaCaT were all grown in high glucose DMEM supplemented with 10% fetal calf serum (FCS). The HK-168 cells, which retained the ability to terminally differentiate under high Ca^2+ and FCS concentrations, were grown in K-SFM, a chemically defined medium supplemented with human EGF and bovine pituitary extract (ThermoFisher Scientific, Life Technologies, Monza—MI). Each cell line was sub-cultured twice a week at the appropriate split ratio according to the specific proliferative index. In no case antibiotics or antimycotics were added to the culture media. For the present study, all cell lines were retrieved from an in-house cell archive facility.
The anti-clonogenic activity was evaluated both by the current standard qualitative plating efficiency assay and by quantitative live cell imaging analysis ([…] S3 Live Cell Analysis Imaging System—Sartorius Welwyn Garden City, Hertfordshire, UK).

Test [2] deals with HPV transformed cells. Briefly: Anti-clonal effect on HPV transformed cells (cell line not stated). The settings on record: for clonal inhibition in combination / anticlonogenic / anti-clonal effect: summary statement; for anticlonogenic / anti-clonal effect / pIC50 / IRR (inhibitory relative rate): isolated compound; for pIC50: Homo sapiens, minimal concentration reducing 50% of CFU of treated versus control, read-out: CID50 (50% clonal inhibitory dose), isolated polyphenols; for IRR (inhibitory relative rate): reverse ratio of CID50 to the reference CID50 of Quercetin (=1). As for the experimental part: The inhibitory relative rate (IRR) (fourth column) provides an efficacy ranking of molecules.
The anti-clonogenic activity was evaluated both by the current standard qualitative plating efficiency assay and by quantitative live cell imaging analysis (INCUCYTE S3 Live Cell Analysis Imaging System—Sartorius Welwyn Garden City, Hertfordshire, UK). For qualitative plating efficiency assay cells were seeded at ‘clonal’ density (i.e., 0.5 cell/mm^2) either in medium containing the testing molecules or with plain medium and incubated without any further manipulation. After 9-14 days, according to the cell line specific proliferative index, the cultures were decanted and stained with 0.2% CV/methanol for 5 min at room temperature. All conditions were tested in triplicates in a 6-well culture plate. The anti-clonogenic activity of the treatments was evaluated using the colony forming units (CFU) of treated versus control cultures. The minimal concentration which could reduce 50% of the CFU of treated versus control culture was defined as colony-forming Inhibitory concentration (CID50). For quantitative evaluation cells were seeded in 96-well microplates at the above density and condition and allowed to grow the subsequent 8-day incubation in the INCUCYTE S3 Imaging System. Images were acquired at 12-hours intervals and colony formation and percentage of growth area covered (confluency) were then monitored through automated image analysis. The analysis parameters were as follows: segmentation adjustment=0.4; hole fill <5,000 μm^2; adjusted pixel=−2.

Test [3] concerns Siha cells. Briefly: Antiproliferative effect on Siha cells, live cell analysis. The note with it: Siha 1000 cells/well. The method, then: FIG. 2: live cell analysis of RNPs antiproliferative effect. Siha cells were seeded at 1000 cells/well in a 96 well plate and allowed to adhere overnight. The plate was then washed twice with PBS and replenished with 100 microliter/well fresh medium plus 50 μM of each compound. Images were taken every 12 hours; Growth curves were drawn plotting the percentage of confluence versus time. […] In fact, their growth curves outline a single spindle completely overlapping and masking the one of control untreated cells. Conversely, a distinct anti-proliferative effect is evident in panel B- where the growth curves of RNP 9 Kaempferol (solid squares), RNP 12 Luteolin (solid diamonds), RNP 16 Apigenin (solid circles) and control untreated cells (solid stars) are depicted. […] Each point represents the mean of six independent replicas. Bar width represents the Standard Deviation (SD). Consistent results were also obtained by HeLa and ME-180 cells
For antiproliferative effect cells were seeded in 96-well microplates at 1000 cells/per well (i.e.: 30 cell/mm^2), a density allowing exponential growth rate for the subsequent 8-day incubation. After overnight adhesion cell monolayers were washed and replenished with fresh media with different testing molecules, plain medium served as cell growth control.
Cell growth was then monitored by automated INCUCTE S3 imaging Systems. Images were acquired at 12-hours intervals. The analysis parameters were as follows: segmentation adjustment=0.9; hole fill <7,000 μm^2; adjusted pixel=0.
Data for growth curves, anti-clonal and Antiproliferative assays were obtained from at least three independent experiments. Each data point of quantitative anti-proliferative or anti-clonal experiments represents the mean (±SD) of eight independent replicates. Data were analyzed and plotted using Prism 6.0 software (GraphPad Software, San Diego, CA).

For test [4], the system named is Siha cells. Briefly: Anti-clonogenic activity on SiHa cells (plating efficiency assay / live cell imaging). The settings on record: alone. The method, then:
In this experiment Kaempferol and Apigenin were administered to Siha cells at decremental concentrations, either in combination or alone, as shown in the topographical map (in panel C). […] Histograms in Panel B depict the number of colonies per well as evaluated by visual inspection and count.
The Histograms in Panel B depict the number of colonies per well as evaluated by visual inspection and count. • In Panel C a topographical map of plate treatments. Each condition was assayed in duplicate.
Kaempferol, Galangin, Luteolin and their combination were administered to SiHa cells at the concentrations of 25 μM each and of 12,5/12,5/6,25 μM for their combination. Treatments were allowed to stay on cells either for 2 or 4/8/16/24 hours. After that, treatments were washed out, cells washed two times with PBS, replenished with fresh medium and the anti-clonal effect was then monitored by live cell image analysis.
as §1, §2

Where [5] appears, read: 50 μM combined with Galangin 25 μM, FIG. 11.
Where [6] appears, read: combined with Galangin, Chrysin or Apigenin.

The source of these data is patent US20260294864A1, “PHARMACEUTICAL COMPOSITION FOR THE TREATMENT AND PREVENTION OF HPV” (NP1 SRL, priority 2022, published 2026).

pIC50: −log10 of the molar value.

As to `O=C1c2c(O)cc(O)cc2O[C@H](c2ccccc2)[C@H]1O` [Pinobanksin], the Anti-clonal effect result in test [1] is reported as “No effect”.
Still for that read-out and setting: the entry for `O=C1C[C@@H](c2ccccc2)Oc2cc(O)cc(O)c21` [Pinocembrin] is “devoid of any significant anticlonogenic effect”.
In the case of `O=C(/C=C/c1ccc(O)c(O)c1)O[C@@H]1C[C@](O)(C(=O)O)C[C@@H](O)[C@H]1O` [Chlorogenic acid], in test [1], the “clonal inhibition in combination with Apigenin” value is reported as “almost complete clonal inhibition”; the “clonal inhibition in combination with Chrysin” value is “almost complete clonal inhibition”; the “end point clonal assay, clonal inhibition alone” value is “neither of them induced any effect”; the Anti-clonal effect result was “devoid of any significant anticlonogenic effect”. For the same compound, the “clonal inhibition in combination with Galangin” value in test [1] (setting [5]) is on record as “almost complete clonal inhibition”. The “synergy with Galangine, Apigenin and Chrysin” value (shortened to “synergy with Galangine”) in test [1] (in association) is listed as “synergize”. For the same compound, the “clonal inhibition in combination” value in test [2] (setting [6]) was “a certain grade of clonal inhibition”. The “anticlonogenic / anti-clonal effect” value in test [2] is listed as “devoid of. any direct anticlonogenic activity”.
Consider `O=c1cc(-c2ccccc2)oc2cc(O)cc(O)c12` [Chrysin], for which the Anti-clonal effect entry in test [1] is on record as “almost complete suppression of clonal activity”. In addition, in test [2], the pIC50 is 4.60; the “IRR (inhibitory relative rate)” value turned out to be 2; the “anticlonogenic / anti-clonal effect” value was “fair anti-clonal effect, although milder”.
In the case of `C[C@@H]1O[C@@H](OC[C@H]2O[C@@H](Oc3c(-c4ccc(O)c(O)c4)oc4cc(O)cc(O)c4c3=O)[C@H](O)[C@@H](O)[C@@H]2O)[C@H](O)[C@H](O)[C@H]1O` [Rutin], in test [1], the Anti-clonal effect result was “No effect”.
For `O=C(O)c1ccccc1` [Benzoic acid], in test [1], the “clonal inhibition in combination with Apigenin” value is “almost complete clonal inhibition”; the “clonal inhibition in combination with Chrysin” value is recorded as “almost complete clonal inhibition”; the “end point clonal assay, clonal inhibition alone” value is recorded as “neither of them induced any effect”; the Anti-clonal effect entry is “devoid of any significant anticlonogenic effect”. The “clonal inhibition in combination with Galangin” value in test [1] (setting [5]) is “almost complete clonal inhibition”. The “synergy with Galangine” value in test [1] (in association) is on record as “synergize”. Moreover, the “clonal inhibition in combination” value in test [2] (setting [6]) was “a certain grade of clonal inhibition”. In addition, the “anticlonogenic / anti-clonal effect” value in test [2] is “devoid of. any direct anticlonogenic activity”.
For `COc1cc(C(=O)O)ccc1O` [Vanillic acid], in test [1], the “clonal inhibition in combination with Apigenin” value was “almost complete clonal inhibition”; the “end point clonal assay, clonal inhibition alone” value is on record as “neither of them induced any effect”; the Anti-clonal effect result is on record as “devoid of any significant anticlonogenic effect”. In addition, in test [1] (50 μM combined with Galangin 12.5 μM, FIG. 9-10), the “clonal inhibition in combination with Galangin” value is “almost complete clonal inhibition”. The “synergistic effect with Galangine and Apigenin” value in test [1] (in association, FIG. 9) was “synergistic effect”. For the same compound, the “clonal inhibition in combination” value in test [2] (combined with Galangin or Quercetin) was “a certain grade of clonal inhibition”. The “anticlonogenic / anti-clonal effect” value in test [2] is “devoid of any direct activity”. Moreover, the “anticlonogenic / anti-clonal effect” value in test [2] (listed as Vanillic) is on record as “devoid of. any direct anticlonogenic activity”.
`O=c1c(O)c(-c2ccc(O)c(O)c2)oc2cc(O)cc(O)c12` [Quercetin]: the Anti-clonal effect result in test [1] is “almost complete suppression of clonal activity”. Moreover, in test [2], the pIC50 is 4.30 and the “anticlonogenic / anti-clonal effect” value is “fair anti-clonal effect, although milder”.
As for `O=c1cc(-c2ccc(O)cc2)oc2cc(O)cc(O)c12` [Apigenin], in test [1], the Anti-clonal effect entry is listed as “almost complete suppression of clonal activity”. For the same compound, the antiproliferative effect result in test [3] (50 μM, FIG. 2) is recorded as “distinct, although milder effect”. For the same compound, the inhibition at 50 µM in test [3] (Homo sapiens, FIG. 2, read-out: suppression of proliferation) is around 20%. Further, the “clonal efficiency versus control untreated cells” value in test [4] (12.5 μM, Siha, FIG. 4) is given as “no difference to control untreated cells”. Besides, the “end-point anti-clonal effect versus control untreated cells” value in test [4] (25.0 μM, SiHa, FIG. 6-8) is listed as “no difference to control untreated cells”. Also, in test [2], the pIC50 is 4.60; the “IRR (inhibitory relative rate)” value was determined as 2; the “anticlonogenic / anti-clonal effect” value is listed as “fair anti-clonal effect, although milder”.
In the case of `O=C(O)c1ccc(O)c(O)c1` [Protocatechuic acid], in test [1], the “clonal inhibition in combination with Apigenin” value was “almost complete clonal inhibition”; the “clonal inhibition in combination with Chrysin” value is listed as “almost complete clonal inhibition”; the “end point clonal assay, clonal inhibition alone” value was “neither of them induced any effect”; the Anti-clonal effect result is on record as “devoid of any significant anticlonogenic effect”. Also, the “clonal inhibition in combination with Galangin” value in test [1] (setting [5]) is “almost complete clonal inhibition”. Further, the “synergy with Galangine” value in test [1] (in association) is “synergize”. Moreover, the “clonal inhibition in combination” value in test [2] (setting [6]) was “a certain grade of clonal inhibition”. Moreover, the “anticlonogenic / anti-clonal effect” value in test [2] is reported as “devoid of. any direct anticlonogenic activity”.
